Source: US6740644B2, “Chemical compounds” (Smithkline Beecham Corporation, priority 1997, dated 2004)

What was measured:
A3 receptor = molecular target: T1, A3 receptor (Homo sapiens, UniProt P0DMS8); test: Reporter gene experiments: A3 receptor gene assay, ECR relative to NECA; settings: ECR = concentration ratio relative to NECA = 1
T1 sequence (P0DMS8 1-318): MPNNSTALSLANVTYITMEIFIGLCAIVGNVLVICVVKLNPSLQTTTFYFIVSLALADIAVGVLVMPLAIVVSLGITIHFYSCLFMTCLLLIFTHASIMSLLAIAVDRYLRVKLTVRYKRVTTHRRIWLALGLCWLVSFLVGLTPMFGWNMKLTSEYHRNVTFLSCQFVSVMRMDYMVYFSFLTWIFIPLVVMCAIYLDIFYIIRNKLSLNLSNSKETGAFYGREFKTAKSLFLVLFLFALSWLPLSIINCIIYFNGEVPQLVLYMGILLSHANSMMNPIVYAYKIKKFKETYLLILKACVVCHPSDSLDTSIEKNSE

[1] = molecular target: T2, human adenosine A1 receptor (Homo sapiens, UniProt P30542); test: Reporter gene experiments: inhibition of forskolin-stimulated SPAP production in CHO cells (CRE/SPAP/HYG), A1; format: cell-based; settings: ECR = concentration ratio relative to NECA = 1, CHO cells co-expressing human adenosine A1 receptor
T2 construct: expressed in transfected cells; host or cells: Chinese hamster ovary (CHO) cells containing the CRE/SPAP/HYG reporter gene
T2 sequence (P30542 1-326): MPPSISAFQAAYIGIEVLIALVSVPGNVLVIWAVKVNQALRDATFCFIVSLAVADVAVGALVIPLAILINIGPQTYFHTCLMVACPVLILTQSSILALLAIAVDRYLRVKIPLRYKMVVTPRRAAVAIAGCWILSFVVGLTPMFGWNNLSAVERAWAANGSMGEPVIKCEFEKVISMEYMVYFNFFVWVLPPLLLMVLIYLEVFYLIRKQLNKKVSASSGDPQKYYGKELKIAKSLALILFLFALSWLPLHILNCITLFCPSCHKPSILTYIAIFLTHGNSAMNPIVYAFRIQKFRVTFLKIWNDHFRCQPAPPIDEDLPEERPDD
Description: Reporter Gene Experiments
Agonist activity was measured in Chinese hamster ovary (CHO) cells containing the CRE/SPAP/HYG (CRE=cyclic AMP response element; HYG=hygromycin; SPAP=secreted placental alkaline phosphatase) reporter gene, which upon stimulation of cAMP levels produced SPAP. A cell line was used, which stably co-expresses the human adenosine A1 receptor. Cells were plated out in 96-well plates in culture medium and incubated at 37° C. for 1 hour. […] All cells were then incubated for a further 5 hours at 37° C., and cooled to room temperature, after which a substrate for the phosphatase (para-nitrophenol phosphate,pNPP), which is broken down to a coloured reagent) was then added and the 96-well plates are read in a plate reader. From these readings, the concentration-dependence of the inhibition by the agonist of forskolin-stimulated SPAP production, can be calculated.

Row | Compound | A3 Receptor Gene Assay ECR (A3 receptor) | A1 Receptor Gene Assay ECR [1] | melting point
1 | COC[C@H]1O[C@@H](n2cnc3c(NC4CCOCC4)ncnc32)[C@H](O)[C@@H]1O [Example 2, 5′-O-Methyl-N-(tetrahydro-pyran-4-yl)-adenosine] | 180 | 3.30 | 133 to 134 °C
2 | COC[C@H]1O[C@@H](n2cnc3c(N[C@H](C)Cc4ccccc4)ncnc32)[C@H](O)[C@@H]1O [Example 6, 5′-O-Methyl-N-(1R-methyl-2-phenyl-ethyl)-adenosine] | 5.00 | 1.27 | 
3 | COC[C@H]1O[C@@H](n2cnc3c(Nc4ccc(O)c(Cl)c4)ncnc32)[C@H](O)[C@@H]1O [Example 5, N-(3-Chloro-4-hydroxy-phenyl)-5′-O-methyl-adenosine] | >116 | 6.21 | 225 to 230 °C
4 | COC[C@H]1O[C@@H](n2cnc3c(N[C@@H]4C[C@@H]5CC[C@H]4C5)ncnc32)[C@H](O)[C@@H]1O (relative stereo) [Example 22, N-rel-[(1S,4R)-Bicyclo[2.2.1]hept-2R-yl]-5′-O-methyl-adenosine] | 112 |  | 
5 | N-(2,3-Dihydroxy-propylamino)-5′-O-methyl-adenosine [Example 21] | 135 |  | 
6 | COC[C@H]1O[C@@H](n2cnc3c(N[C@@H]4CCOC4)ncnc32)[C@H](O)[C@@H]1O [Example 1, 5′-O-Methyl-N-(tetrahydro-furan-3R-yl)-adenosine] | >129 |  | 
7 | COC[C@H]1O[C@@H](n2cnc3c(N[C@H]4CCC[C@@H]4F)ncnc32)[C@H](O)[C@@H]1O [Example 20, N-(2S-Fluoro-(S)-cyclopentyl)-5′-O-methyl-adenosine] | 54.8 |  | 
8 | CCOC(=O)N1CCC(Nc2ncnc3c2ncn3[C@@H]2O[C@H](COC)[C@@H](O)[C@H]2O)CC1 [Example 23, 4-[9-(3R,4S-Dihydroxy-5R-methoxymethyl-tetrahydro-furan-2R-yl)-9H-purin-6-ylamino]-piperidine-1-carboxylic acid ethyl ester] | 162 | 2.20 | 
9 | COC[C@H]1O[C@@H](n2cnc3c(N[C@@H]4CCO[C@H]4C)ncnc32)[C@H](O)[C@@H]1O [Example 4, 5′-O-Methyl-N-(2S-methyl-tetrahydro-furan-3R-yl)-adenosine] | 338 |  | 
10 | CNS(=O)(=O)CCNc1nc(C)nc2c1ncn2[C@@H]1O[C@H](COC)[C@@H](O)[C@H]1O [Example 25, 2-[9-(3R,4S-Dihydroxy-5R-methoxymethyl-tetrahydro-furan-2R-yl)-2-methyl-9H-purin-6-ylamino]-ethanesulfonic acid methylamide] | >288 | 1.67 | 
11 | COC[C@H]1O[C@@H](n2cnc3c(N[C@H](C)CO)ncnc32)[C@H](O)[C@@H]1O [Example 14, N-(2-Hydroxy-1R-methyl-ethyl)-5′-O-methyl-adenosine] |  |  | 232 to 233 °C
12 | COC[C@H]1O[C@@H](n2cnc3c(NCC4CC4)nc(C)nc32)[C@H](O)[C@@H]1O [Example 28, N-Cyclopropylmethyl-2-methyl-5′-O-methyl-adenosine] | >99 | 8.07 | 
13 | COC[C@H]1O[C@@H](n2cnc3c(NC4CCCC4)nc(C)nc32)[C@H](O)[C@@H]1O [Example 27, N-Cyclopentyl-2-methyl-5′-O-methyl-adenosine] | >263 | 3.02 | 
14 | COC[C@H]1O[C@@H](n2cnc3c(N[C@@H]4CCC[C@H]4O)ncnc32)[C@H](O)[C@@H]1O [Example 17, N-(2R-Hydroxy-(R)-cyclopentyl)-5′-O-methyl-adenosine] | 57.3 | 3.90 | 202 to 204 °C
15 | COC[C@H]1O[C@@H](n2cnc3c(NC(C)(C)C)ncnc32)[C@H](O)[C@@H]1O [Example 19, N-tert-Butyl-5′-O-methyl-adenosine] | >243 | 1.62 | 
16 | COC[C@H]1O[C@@H](n2cnc3c(N[C@H]4CCC[C@@H]4OC)ncnc32)[C@H](O)[C@@H]1O [Example 3, N-(2S-Methoxy-(S)-cyclopentyl)-5′-O-methyl-adenosine] | 204 |  | 
